According to paper PMC9229798, “Antioxidant Activity and Cytotoxicity of Aromatic Oligosulfides” (Molecules, 2022):
“And” between values parts separate entries of the source, which are not always exact repeats. Identical values can stand only once.

Assays:
[1] = CUPRAC assay (cupric reducing antioxidant capacity); settings: Trolox equivalents; compound 0.5 mM, 30 min
Description: Antioxidant activity can be evaluated by the CUPRAC test (cupric reducing antioxidant capacity) based on the ability of the compound to reduce Cu^2+ in complex with 2,9-dimethyl-1,10-phenanthroline (neocuproin). The antioxidant capacity of compounds 1–6 in the CUPRAC test was measured in equivalents of the water-soluble analogue of vitamin E—Trolox (TEACCUPRAC) (Table 2). […] The TEACCUPRAC values of disulfides 4 and 6 were quite close and indicated the manifestation of antioxidant activity mainly due to the presence of HO-groups. The slightly lower activity of compound 4 was explained by the absence of tert-butyl groups in its structure.
Neocuproine (2,9-dimethyl-1,10-phenanthroline) and Trolox were used with no further purification. The method proposed by Apak et al. was used with slight modification. For these measurements, 0.05 mL of CuCl2 solution (0.01 M), 0.05 mL of MeOH neocuproine solution (7.5 mM) and 0.05 mL of ammonium acetate buffer solution (1 M) were added to a test tube, followed by mixing with the 0.05 mL tested compounds (0.5 mM). The mixtures were kept at room temperature for 30 min. Absorbance was measured at 450 nm against a reagent blank. The results were presented in Trolox equivalents (Trolox equivalent antioxidant capacity, TEAC) obtained using absorbance data, and the linear calibration curve was plotted as absorbance vs. Trolox concentration.

[2] = FRAP assay (ferric reducing antioxidant power); settings: Trolox equivalents
Description: The assessment of antioxidant activity was also carried out by the FRAP (Ferric Reduction Aantioxidant Power) method based on electron transfer similar to the CUPRAC method, while in the DPPH test, the reaction proceeded according to the HAT mechanism. Antioxidant activity of compounds 1–6 was also calculated in Trolox equivalents (TEACFRAP). […] The lowest activity was obtained for trisulfide 1 and disulfide 5, which are characterized by the absence of functional groups in the benzene ring. The TEACFRAP values for disulfide 2 with a methoxy group and compounds 4 and 6 with a phenolic fragment differed insignificantly and amounted to 0.58 and 0.69 Trolox equivalents.
The sample solution (0.1 mL) was mixed with 0.1 mL phosphate buffer (0.2 M, pH 6.6) and 0.1 mL potassium ferricyanide (1%). For each test compound different concentrations in EtOH were used (5, 10, 25, 50, 100, 200 and 250 μM). The resulting mixture was incubated at 50 °C for 20 min. After the incubation period, 0.1 mL trichloroacetic acid (10%), 0.5 mL deionized water, and 0.1 mL ferric chloride (0.1%) were added to the mixture. The sample absorbance was read at 700 nm with a 96-cell microplate spectrophotometer. The reduction of Fe (III) to Fe (II) could be expressed as % inhibition or equivalent of a standard compound (e.g., Trolox).

[3] = TBARS accumulation in oleic acid oxidation; settings: 1 mmol/L additive, 65 °C, 3 h
Description: The total antioxidant activity of compounds 1–6 during the oxidation of oleic acid with atmospheric oxygen at 65 °C for 3 h was determined by standard methods according to the level of accumulation of the main metabolites. Hydroperoxides as primary products (LOOH) and secondary LPO carbonyl products formed colored complexes with thiobarbituric acid (TBARS).
The kinetics of LOOH and TBARS formation was similar in the control test and in the presence of the studied compounds. The exponential kinetic curves of LOOH accumulation in oleic acid corresponded to the equation CLOOH = a × e^kt with correlation coefficients close to 1. It indicated a pseudo-first order of reaction in the substrate, inherent in a radical process with degenerate chain branching (Figure 2). The kinetic curves of secondary carbonyl products were linear and corresponded to the equation CTBARS = kt + b, with correlation coefficients close to 1 (Figure 3).
The accumulation rate for the final oxidation products (TBARS) was determined according to a modified standard method. Samples (0.01 mL) of oleic acid were taken from the thermostat every 30 min. They were introduced into a test tube containing a mixture of Tris buffer (0.8 mL), distilled water (1.2 mL), and freshly prepared thiobarbituric acid solution (0.8%, 1 mL). The tube was placed for 10 min in a boiling water bath, and after cooling, the absorption of the samples was measured in comparison with that of the control at λ = 532 nm. A similar mixture, but without added oleic acid, was used as the control. The concentration of carbonyl compounds was calculated according to the formula:
[TBARS] = (E × 3)/0.156, where [TBARS] is the content of carbonyl compounds, nM; E is the extinction of a sample relative to the control; 3 is the sample volume, mL; and 0.156 is the extinction of malondialdehyde (1 nmol) dissolved in 1 mL at λ = 532 nm.

[4] = design: method as in doi:10.3906/kim-1904-40; settings: PASS, cited from earlier work
[5] = ferrozine–Fe2+ complex formation; cited from earlier work
[6] = design: method as in doi:10.1016/j.arabjc.2021.103068; settings: all stages of LPO; cited from earlier work
A-549 = test: Annexin V/Dead Cell assay; assay type: cell-based, human; settings: A-549, 2 × IC50, 48 h
Text: Apoptosis or programmed cell death is an important and active regulatory pathway of cell growth and proliferation. Cells respond to specific induction signals by initiating intracellular processes that result in characteristic physiological changes. Among these are externalization of phosphatidylserine (PS) to the cell surface, cleavage and degradation of specific cellular proteins, compaction and fragmentation of nuclear chromatin, and loss of membrane integrity. Phosphatidylserine (PS) is normally located in the inner part of the cell membrane. In the initial stage of apoptosis, the PS residues which translocated to the extracellular are detected by Annexin V, which is a calcium-dependent phospholipid-binding protein with a high affinity for PS. Annexin V flow cytometric assay was used to evaluate the compounds’ ability to induce apoptosis and influence on cell death. HCT-116 colon carcinoma and A-549 lung adenocarcinoma cells were treated by disulfides 2 and 3.
HCT-116 (colon carcinoma) and A-549 (lung carcinoma) cells (1 × 10^6) were seeded in a six-well plate and were incubated for 24 h. […] After incubation, the cells were harvested by trypsinization, precipitated by centrifugation (3000 rpm), washed with PBS, recentrifuged, and the buffer was removed. DMEM was added to achieve a cell concentration of 400–1000 cells/µL. The Muse Annexin V & Dead Cell Kit reagent (100 µL) was added to the cells and […] for 20 min at room temperature in the dark. The results were recorded on a Muse Cell Analyzer flow cytometer (Merck, Rahway, NJ, USA).

[7] = probability of lack of activity
[8] = probability of presence of activity

| Structure (SMILES) | TEAC CUPRAC [1] | TEAC FRAP [2] | TBARS, % Inhibition [3] [%] | Antidote, Pi [4, 7] | Antioxidant, Pi [4, 7] | Free radical scavenger, Pi [4, 7] | Nitric oxide scavenger, Pi [4, 7] | Oxygen scavenger, Pi [4, 7] | Antidote, Pa [4, 8] | Antioxidant, Pa [4, 8] | Free radical scavenger, Pa [4, 8] | Nitric oxide scavenger, Pa [4, 8] | Oxygen scavenger, Pa [4, 8] | FIC, % of Inhibition [5] [%] | anti-/prooxidant effect in liver LPO [6] | Early Apop. (A-549) [%] | total apoptotic cells (A-549) [%] |
| --- | --- | --- | --- | --- | --- | --- | --- | --- | --- | --- | --- | --- | --- | --- | --- | --- | --- |
| c1ccc(SSSc2ccccc2)cc1 [Compound 1, diphenyl trisulfide] | non active | 0.06 ± 0.01 | 21.0 ± 0.18 | – | – | – | – | – | – | – | – | – | – | – | – | – | – |
| CC(C)(C)c1cc(SSc2cc(C(C)(C)C)c(O)c(C(C)(C)C)c2)cc(C(C)(C)C)c1O [Compound 6, bis(3,5-di-tert-butyl-4-hydroxyphenyl) disulfide] | – | 0.69 and 0.69 ± 0.02 | – | 0.027 | 0.005 | 0.012 | 0.012 | 0.044 | 0.317 | 0.549 | 0.473 | 0.278 | 0.519 | 28.9 ± 1.3 | pronounced antioxidant effect | – | – |
| c1ccc(SSc2ccccc2)cc1 [Compound 5, diphenyl disulfide] | – | 0.06 ± 0.05 | – | 0.078 | – | 0.056 | 0.013 | 0.018 | 0.228 | – | 0.230 | 0.274 | 0.621 | 73.7 ± 2.1 | prolonged prooxidant activity | – | – |
| COc1ccc(SSc2ccc(OC)c(OC)c2)cc1OC [Compound 3, bis(3,4-dimethoxyphenyl) disulfide] | 0.06 ± 0.01 | – | – | – | – | – | – | – | – | – | – | – | – | – | – | 38.2 | 42.6 |
| COc1ccccc1SSc1ccccc1OC [Compound 2, bis(2-methoxyphenyl) disulfide] | non active | 0.58 and 0.58 ± 0.05 | 42.9 ± 0.76 | – | – | – | – | – | – | – | – | – | – | – | – | 24.0 | 25.2 |
| Oc1ccc(SSc2ccc(O)cc2)cc1 [Compound 4, 4,4′-dihydroxydiphenyl disulfide] | 1.8 and 1.80 ± 0.06 | 0.69 and 0.69 ± 0.07 | 39.0 ± 0.49 | – | – | – | – | – | – | – | – | – | – | – | – | – | – |
